Reference: ChEMBL document CHEMBL4229524, “Design, synthesis and preclinical evaluation of 5-methyl-N4-aryl-furo[2,3-d]pyrimidines as single agents with combination chemotherapy potential” (Bioorg Med Chem Lett, 2018)
Activity calls are given as the source filed them. No cut-off for these calls is given here.

Experiments:
[1] = tested on: OVCAR-3; test: Antitumor activity against human OVCAR3 cells xenografted in ip dosed mouse assessed as reduction in cell viability administered daily for 4 days starting from 3 to 4 days post implantation measured post last dose by MTT based in-vivo hollow fiber assay; assay type: functional, organism-based
[2] = tested on: Mus musculus; test: Toxicity in athymic nude mouse assessed as death at 250 to 500 mg/kg, po administered as single dose measured after 1 day; assay type: organism-based; conditions: in vivo, 24 h
[3] = tested on: UACC-62; test: Antitumor activity against human UACC62 cells xenografted in sc dosed mouse assessed as reduction in cell viability administered daily for 4 days starting from 3 to 4 days post implantation measured post last dose by MTT based in-vivo hollow fiber assay; assay type: functional, organism-based
[4] = tested on: NCI-H23; test: Antitumor activity against human NCI-H23 cells xenografted in sc dosed mouse assessed as reduction in cell viability administered daily for 4 days starting from 3 to 4 days post implantation measured post last dose by MTT based in-vivo hollow fiber assay; assay type: functional, organism-based
[5] = tested on: SW-620; test: Antitumor activity against human SW620 cells xenografted in sc dosed mouse assessed as reduction in cell viability administered daily for 4 days starting from 3 to 4 days post implantation measured post last dose by MTT based in-vivo hollow fiber assay; assay type: functional, organism-based
[6] = tested on: A498; test: Antitumor activity against human A498 cells xenografted in athymic nude mouse assessed as reduction in tumor volume at 25 mg/kg, ip q3d for 19 days measured post last dose up to 40 days; assay type: functional; design: scale not given: the % may be the effect or the level left
[7] = target: T1, Vascular endothelial growth factor receptor 2 (Homo sapiens, UniProt P35968); test: Potency index, ratio of sunitinib IC50 to test compound IC50 for VEGF-induced VEGFR2 activation in human U251 cells; assay type: cell-based
[8] = tested on: NCI-H23; test: Antitumor activity against human NCI-H23 cells xenografted in ip dosed mouse assessed as reduction in cell viability administered daily for 4 days starting from 3 to 4 days post implantation measured post last dose by MTT based in-vivo hollow fiber assay; assay type: functional, organism-based
[9] = tested on: Mus musculus; test: Toxicity in athymic nude mouse assessed as death at 100 mg/kg, po administered as single dose measured after 4 days; assay type: organism-based; conditions: in vivo, 96 h
[10] = tested on: A498; test: Antitumor activity against human A498 cells xenografted in athymic nude mouse assessed as reduction in tumor volume at 25 mg/kg, ip q2d for 19 days measured post last dose up to 40 days; assay type: functional; design: scale not given: the % may be the effect or the level left
[11] = tested on: OVCAR-5; test: Antitumor activity against human OVCAR5 cells xenografted in ip dosed mouse assessed as reduction in cell viability administered daily for 4 days starting from 3 to 4 days post implantation measured post last dose by MTT based in-vivo hollow fiber assay; assay type: functional, organism-based
[12] = tested on: Mus musculus; test: Toxicity in athymic nude mouse xenografted with human A498 cells assessed as body weight at 25 mg/kg, ip qd for 19 days measured post last dose relative to control; assay type: organism-based; conditions: in vivo, 456 h
[13] = tested on: U-251; test: Antitumor activity against human U251 cells xenografted in sc dosed mouse assessed as reduction in cell viability administered daily for 4 days starting from 3 to 4 days post implantation measured post last dose by MTT based in-vivo hollow fiber assay; assay type: functional, organism-based
[14] = tested on: SF-295; test: Antitumor activity against human SF295 cells xenografted in sc dosed mouse assessed as reduction in cell viability administered daily for 4 days starting from 3 to 4 days post implantation measured post last dose by MTT based in-vivo hollow fiber assay; assay type: functional, organism-based
[15] = tested on: Mus musculus; test: Toxicity in athymic nude mouse xenografted with human A498 cells assessed as body weight at 25 mg/kg, ip q2d for 19 days measured post last dose relative to control; assay type: organism-based; conditions: in vivo, 456 h
[16] = target: T2, Platelet-derived growth factor receptor beta (Homo sapiens, UniProt P09619); test: Inhibition of PDGF-BB-induced PDGFRbeta activation in human SH-SY5Y cells pretreated for 60 mins followed by PDGF-BB addition and measured after 10 mins by ELISA; assay type: cell-based
[17] = target: Epidermal growth factor receptor (Homo sapiens, UniProt P00533); assay type: cell-based
[18] = tested on: COLO 205; test: Antitumor activity against human COLO205 cells xenografted in athymic nude mouse; assay type: functional, cell-based
[19] = tested on: Homo sapiens; test: Antitumor activity against human LOX cells xenografted in ip dosed mouse assessed as reduction in cell viability administered daily for 4 days starting from 3 to 4 days post implantation measured post last dose by MTT based in-vivo hollow fiber assay; assay type: functional, organism-based
[20] = tested on: Mus musculus; test: Toxicity in athymic nude mouse xenografted with human A498 cells assessed as body weight at 25 mg/kg, ip q3d for 19 days measured post last dose relative to control; assay type: organism-based; conditions: in vivo, 456 h
[21] = tested on: OVCAR-3; test: Antitumor activity against human OVCAR3 cells xenografted in sc dosed mouse assessed as reduction in cell viability administered daily for 4 days starting from 3 to 4 days post implantation measured post last dose by MTT based in-vivo hollow fiber assay; assay type: functional, organism-based
[22] = tested on: OVCAR-5; test: Antitumor activity against human OVCAR5 cells xenografted in sc dosed mouse assessed as reduction in cell viability administered daily for 4 days starting from 3 to 4 days post implantation measured post last dose by MTT based in-vivo hollow fiber assay; assay type: functional, organism-based
[23] = tested on: A498; test: Antitumor activity against human A498 cells xenografted in athymic nude mouse assessed as reduction in tumor volume at 25 mg/kg, ip qd for 19 days measured post last dose up to 40 days; assay type: functional; design: scale not given: the % may be the effect or the level left
[24] = tested on: MDA-MB-435; test: Antitumor activity against human MDA-MB-435 cells xenografted in ip dosed mouse assessed as reduction in cell viability administered daily for 4 days starting from 3 to 4 days post implantation measured post last dose by MTT based in-vivo hollow fiber assay; assay type: functional, organism-based
[25] = target: T1, Vascular endothelial growth factor receptor 2; assay type: cell-based
[26] = tested on: COLO 205; test: Antitumor activity against human COLO205 cells xenografted in sc dosed mouse assessed as reduction in cell viability administered daily for 4 days starting from 3 to 4 days post implantation measured post last dose by MTT based in-vivo hollow fiber assay; assay type: functional, organism-based
[27] = tested on: COLO 205; test: Antitumor activity against human COLO205 cells xenografted in ip dosed mouse assessed as reduction in cell viability administered daily for 4 days starting from 3 to 4 days post implantation measured post last dose by MTT based in-vivo hollow fiber assay; assay type: functional, organism-based
[28] = tested on: A-431; test: Cytotoxicity against human A431 cells over-expressing EGFR; assay type: functional, cell-based
[29] = tested on: MDA-MB-435; test: Antitumor activity against human MDA-MB-435 cells xenografted in sc dosed mouse assessed as reduction in cell viability administered daily for 4 days starting from 3 to 4 days post implantation measured post last dose by MTT based in-vivo hollow fiber assay; assay type: functional, organism-based
[30] = tested on: NCI-H522; test: Antitumor activity against human NCI-H522 cells xenografted in athymic nude mouse; assay type: functional, cell-based
[31] = tested on: Homo sapiens; test: Antitumor activity against human LOX cells xenografted in sc dosed mouse assessed as reduction in cell viability administered daily for 4 days starting from 3 to 4 days post implantation measured post last dose by MTT based in-vivo hollow fiber assay; assay type: functional, organism-based
[32] = tested on: Mus musculus; test: Toxicity in athymic nude mouse assessed as survival at 12.5 to 50 mg/kg, po administered as single dose; assay type: organism-based; conditions: in vivo
[33] = tested on: Chorioallantoic membrane; test: Antiangiogenic activity in Leghorn chicken embryo chorioallantoic membrane after 40 hrs by microscopic analysis; assay type: functional, tissue-based; conditions: Gallus gallus
[34] = tested on: SF-295; test: Antitumor activity against human SF295 cells xenografted in ip dosed mouse assessed as reduction in cell viability administered daily for 4 days starting from 3 to 4 days post implantation measured post last dose by MTT based in-vivo hollow fiber assay; assay type: functional, organism-based
[35] = tested on: UACC-62; test: Antitumor activity against human UACC62 cells xenografted in ip dosed mouse assessed as reduction in cell viability administered daily for 4 days starting from 3 to 4 days post implantation measured post last dose by MTT based in-vivo hollow fiber assay; assay type: functional, organism-based
[36] = tested on: NCI-H522; test: Antitumor activity against human NCI-H522 cells xenografted in sc dosed mouse assessed as reduction in cell viability administered daily for 4 days starting from 3 to 4 days post implantation measured post last dose by MTT based in-vivo hollow fiber assay; assay type: functional, organism-based
[37] = tested on: U-251; test: Antitumor activity against human U251 cells xenografted in ip dosed mouse assessed as reduction in cell viability administered daily for 4 days starting from 3 to 4 days post implantation measured post last dose by MTT based in-vivo hollow fiber assay; assay type: functional, organism-based
[38] = tested on: MDA-MB-231; test: Antitumor activity against human MDA-MB-231 cells xenografted in ip dosed mouse assessed as reduction in cell viability administered daily for 4 days starting from 3 to 4 days post implantation measured post last dose by MTT based in-vivo hollow fiber assay; assay type: functional, organism-based
[39] = target: T2, Platelet-derived growth factor receptor beta; test: Potency index, ratio of sunitinib IC50 to test compound IC50 for PDGF-BB-induced PDGFRbeta activation in human SH-SY5Y cells; assay type: cell-based
[40] = tested on: MDA-MB-231; test: Antitumor activity against human MDA-MB-231 cells xenografted in sc dosed mouse assessed as reduction in cell viability administered daily for 4 days starting from 3 to 4 days post implantation measured post last dose by MTT based in-vivo hollow fiber assay; assay type: functional, organism-based
[41] = tested on: NCI-H522; test: Antitumor activity against human NCI-H522 cells xenografted in ip dosed mouse assessed as reduction in cell viability administered daily for 4 days starting from 3 to 4 days post implantation measured post last dose by MTT based in-vivo hollow fiber assay; assay type: functional, organism-based
[42] = tested on: SW-620; test: Antitumor activity against human SW620 cells xenografted in ip dosed mouse assessed as reduction in cell viability administered daily for 4 days starting from 3 to 4 days post implantation measured post last dose by MTT based in-vivo hollow fiber assay; assay type: functional, organism-based
[43] = tested on: A10; test: Induction of microtubule depolymerization in rat A10 cells after 18 hrs by indirect immunofluorescence method; assay type: functional, cell-based; conditions: A10, 18 h
[44] = Resistance index, ratio of IC50 for human SKOV3-MDR1-M6/6 cells to IC50 for human SKOV3 cells; assay type: functional
[45] = tested on: SK-OV-3; test: Antiproliferative activity against human SKOV3 cells after 72 hrs by sulforhodamine B assay; assay type: functional, cell-based; conditions: SK-OV-3, 72 h
[46] = Inhibition of bovine brain tubulin assembly pretreated for 15 mins followed by GTP addition by spectrophotometric method; design: species or system Bos taurus
[47] = organism: Bos taurus; test: Inhibition of [3H]colchicine binding to bovine brain tubulin at 1 uM measured after 10 mins relative to control
[48] = tested on: HeLa; test: Antiproliferative activity against human HeLa cells after 72 hrs by sulforhodamine B assay; assay type: functional, cell-based
[49] = organism: Bos taurus; test: Inhibition of [3H]colchicine binding to bovine brain tubulin at 5 uM measured after 10 mins relative to control
[50] = Antiproliferative activity against human wild-type Hela-beta3 cells after 72 hrs by sulforhodamine B assay; assay type: functional
[51] = Resistance index, ratio of IC50 for human HeLa cells to IC50 for human wild-type Hela-beta3 cells; assay type: functional
[52] = Antiproliferative activity against human SKOV3-MDR1-M6/6 cells after 72 hrs by sulforhodamine B assay; assay type: functional; conditions: SKOV3-MDR1-M6/6, 72 h
[53] = tested on: MDA-MB-435; test: Antiproliferative activity against human MDA-MB-435 cells after 72 hrs by sulforhodamine B assay; assay type: functional, cell-based; conditions: MDA-MB-435, 72 h

T1 sequence (P35968 whole entry): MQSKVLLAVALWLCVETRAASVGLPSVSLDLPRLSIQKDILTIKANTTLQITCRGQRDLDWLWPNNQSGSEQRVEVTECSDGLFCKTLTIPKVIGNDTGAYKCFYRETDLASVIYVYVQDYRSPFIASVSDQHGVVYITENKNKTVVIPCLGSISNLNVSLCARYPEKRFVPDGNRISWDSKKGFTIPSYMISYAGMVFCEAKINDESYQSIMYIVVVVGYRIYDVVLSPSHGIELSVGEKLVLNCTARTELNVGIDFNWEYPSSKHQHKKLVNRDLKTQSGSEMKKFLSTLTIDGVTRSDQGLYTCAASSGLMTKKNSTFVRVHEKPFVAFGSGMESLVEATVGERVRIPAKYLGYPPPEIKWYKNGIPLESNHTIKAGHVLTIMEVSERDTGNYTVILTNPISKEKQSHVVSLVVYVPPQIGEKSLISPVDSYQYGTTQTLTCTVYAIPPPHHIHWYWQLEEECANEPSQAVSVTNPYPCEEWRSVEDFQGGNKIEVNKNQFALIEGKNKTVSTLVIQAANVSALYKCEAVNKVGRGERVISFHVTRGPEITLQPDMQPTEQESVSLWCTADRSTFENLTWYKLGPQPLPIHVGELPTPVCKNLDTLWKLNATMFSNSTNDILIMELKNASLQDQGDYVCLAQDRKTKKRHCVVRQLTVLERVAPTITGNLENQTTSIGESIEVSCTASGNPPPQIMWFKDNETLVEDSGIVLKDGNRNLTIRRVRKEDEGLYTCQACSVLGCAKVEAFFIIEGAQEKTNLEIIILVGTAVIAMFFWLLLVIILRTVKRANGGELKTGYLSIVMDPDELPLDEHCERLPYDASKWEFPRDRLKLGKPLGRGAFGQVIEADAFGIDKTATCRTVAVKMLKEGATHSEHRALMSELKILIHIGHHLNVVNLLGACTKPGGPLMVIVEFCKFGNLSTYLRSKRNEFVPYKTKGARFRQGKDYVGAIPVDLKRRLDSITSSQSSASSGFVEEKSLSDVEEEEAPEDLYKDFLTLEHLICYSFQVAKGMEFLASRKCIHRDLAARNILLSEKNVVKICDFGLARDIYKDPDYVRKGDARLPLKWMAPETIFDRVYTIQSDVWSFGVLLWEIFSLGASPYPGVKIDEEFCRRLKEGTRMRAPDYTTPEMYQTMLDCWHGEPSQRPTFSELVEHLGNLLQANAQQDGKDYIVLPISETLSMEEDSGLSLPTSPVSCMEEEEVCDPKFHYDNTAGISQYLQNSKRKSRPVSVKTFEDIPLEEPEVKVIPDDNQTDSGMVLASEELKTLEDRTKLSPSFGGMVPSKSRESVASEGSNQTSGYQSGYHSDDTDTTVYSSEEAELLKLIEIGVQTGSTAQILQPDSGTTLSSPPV
T2 sequence (P09619 whole entry): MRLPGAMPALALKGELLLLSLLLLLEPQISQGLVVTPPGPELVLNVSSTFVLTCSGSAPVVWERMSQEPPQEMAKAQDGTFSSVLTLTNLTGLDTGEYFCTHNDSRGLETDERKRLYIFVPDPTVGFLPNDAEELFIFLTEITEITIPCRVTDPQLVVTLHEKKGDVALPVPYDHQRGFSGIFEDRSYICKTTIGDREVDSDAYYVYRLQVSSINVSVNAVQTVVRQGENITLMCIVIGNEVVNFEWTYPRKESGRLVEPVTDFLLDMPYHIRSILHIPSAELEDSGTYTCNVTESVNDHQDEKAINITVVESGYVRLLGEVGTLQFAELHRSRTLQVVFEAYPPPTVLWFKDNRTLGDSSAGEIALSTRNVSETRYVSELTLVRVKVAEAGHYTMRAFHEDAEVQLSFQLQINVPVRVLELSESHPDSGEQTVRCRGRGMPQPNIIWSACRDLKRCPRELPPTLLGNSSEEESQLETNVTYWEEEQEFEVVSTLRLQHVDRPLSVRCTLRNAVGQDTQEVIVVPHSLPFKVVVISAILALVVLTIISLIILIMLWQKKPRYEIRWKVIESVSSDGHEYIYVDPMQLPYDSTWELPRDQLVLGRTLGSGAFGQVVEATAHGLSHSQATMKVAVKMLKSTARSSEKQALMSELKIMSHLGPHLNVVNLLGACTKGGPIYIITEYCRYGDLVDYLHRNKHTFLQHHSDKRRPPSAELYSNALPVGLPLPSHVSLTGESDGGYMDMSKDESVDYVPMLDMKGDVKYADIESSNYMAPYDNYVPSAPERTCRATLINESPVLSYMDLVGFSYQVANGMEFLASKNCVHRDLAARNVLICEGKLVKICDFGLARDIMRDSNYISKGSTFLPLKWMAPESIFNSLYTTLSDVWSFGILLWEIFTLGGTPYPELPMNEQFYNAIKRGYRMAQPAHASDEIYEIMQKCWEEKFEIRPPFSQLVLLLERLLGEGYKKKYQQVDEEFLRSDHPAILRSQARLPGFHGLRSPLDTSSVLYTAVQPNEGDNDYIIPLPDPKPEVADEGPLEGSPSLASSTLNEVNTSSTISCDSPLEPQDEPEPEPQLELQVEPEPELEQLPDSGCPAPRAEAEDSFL
Sequence of Epidermal growth factor receptor (P00533 whole entry): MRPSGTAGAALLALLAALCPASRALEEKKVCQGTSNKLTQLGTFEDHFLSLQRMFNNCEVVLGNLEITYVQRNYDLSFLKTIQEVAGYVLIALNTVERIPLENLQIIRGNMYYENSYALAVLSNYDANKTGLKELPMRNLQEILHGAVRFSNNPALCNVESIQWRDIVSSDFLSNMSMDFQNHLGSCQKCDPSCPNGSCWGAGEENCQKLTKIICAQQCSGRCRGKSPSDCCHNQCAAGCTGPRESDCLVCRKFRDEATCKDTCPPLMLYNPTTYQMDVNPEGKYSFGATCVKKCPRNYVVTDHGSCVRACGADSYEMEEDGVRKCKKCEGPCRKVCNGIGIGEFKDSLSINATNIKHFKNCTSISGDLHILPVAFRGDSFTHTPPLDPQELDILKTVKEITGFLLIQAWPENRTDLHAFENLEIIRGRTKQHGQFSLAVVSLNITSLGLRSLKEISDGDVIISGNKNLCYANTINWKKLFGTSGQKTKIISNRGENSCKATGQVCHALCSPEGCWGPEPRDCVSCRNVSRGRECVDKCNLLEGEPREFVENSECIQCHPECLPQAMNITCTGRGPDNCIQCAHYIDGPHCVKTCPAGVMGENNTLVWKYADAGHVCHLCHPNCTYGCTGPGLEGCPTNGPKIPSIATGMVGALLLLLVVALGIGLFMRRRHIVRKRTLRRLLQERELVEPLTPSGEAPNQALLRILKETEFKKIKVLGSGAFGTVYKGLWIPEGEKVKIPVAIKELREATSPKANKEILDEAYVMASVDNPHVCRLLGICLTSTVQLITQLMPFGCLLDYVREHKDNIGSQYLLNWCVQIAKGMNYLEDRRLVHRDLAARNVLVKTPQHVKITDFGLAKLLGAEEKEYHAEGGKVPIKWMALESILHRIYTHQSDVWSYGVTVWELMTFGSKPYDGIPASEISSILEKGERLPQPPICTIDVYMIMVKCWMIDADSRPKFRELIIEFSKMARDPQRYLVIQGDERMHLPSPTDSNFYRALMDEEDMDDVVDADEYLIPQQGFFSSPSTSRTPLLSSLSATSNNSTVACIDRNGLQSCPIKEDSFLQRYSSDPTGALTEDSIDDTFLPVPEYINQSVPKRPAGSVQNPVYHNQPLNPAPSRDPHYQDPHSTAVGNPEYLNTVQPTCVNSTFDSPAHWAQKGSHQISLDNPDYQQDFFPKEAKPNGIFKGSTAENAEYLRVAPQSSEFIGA

In the case of `COc1ccc(N(C)c2ncnc3occ(C)c23)cc1`, the Activity [1] is reported as “Active”, the Activity [2] is reported as “Toxic” and the Activity [3] is reported as “Active”. For the same molecule, the Activity [4] was “Active”, the Activity [5] was “Active” and the Activity [6] was 25 - 50%. The Ratio IC50 [7] was 2, the Activity [8] was “Active” and the Activity [9] was “Toxic”. For the same molecule, the Activity [10] was 25 - 50%, the Activity [11] was “Active” and the T/C [12] was 47%. The Activity [13] was “Active”, the Activity [14] was “Active” and the T/C [15] was 38%. For the same molecule, the IC50 [16] was 12.3 nM, the IC50 [17] was 15.5 nM and the Activity [18] was “inactive”. The Activity [19] was “Active”, the T/C [20] was 71% and the Activity [21] was “Active”. The Activity [22] was “Active”, the Activity [23] was 25 - 50% and the Activity [24] was “Active”. The IC50 [25] was 9.3 nM, the Activity [26] was “Active” and the Activity [27] was “Active”. The IC50 [28] was 5.1 nM, the Activity [29] was “Active” and the Activity [30] was “inactive”. For the same molecule, the Activity [31] was “Active”, the MSD [32] was 15 days and the IC50 [33] was 80 nM. For the same molecule, the Activity [34] was “Active”, the Activity [35] was “Active” and the Activity [36] was “Active”. The Activity [37] was “Active”, the Activity [38] was “Active” and the Ratio IC50 [39] was 7. For the same molecule, the Activity [40] was “Active”, the Activity [41] was “Active” and the Activity [42] was “Active”.

With `Cc1coc2ncnc(N(C)c3ccc(N(C)C)cc3)c12` the EC50 [43] was 140 nM, the “Ratio IC50” value [44] was 1.3 and the IC50 [45] was 70 nM. It also gave an IC50 [46] of 1100 nM, an IC50 [16] of 63 nM and an IC50 [17] of 3.1 nM. For the same molecule, the inhibition [47] was 59%, the IC50 [25] was 15.6 nM and the IC50 [48] was 58 nM. It also gave an IC50 [28] of 1 nM, an IC50 [33] of 653 nM and an inhibition [49] of 86%. For the same molecule, the IC50 [50] was 60 nM, the “Ratio IC50” value [51] was 1 and the IC50 [52] was 91 nM. For the same molecule, the IC50 [53] was 44 nM.
